Measurements published in EPA's ToxValDB 9.5 (doi:10.2903/j.efsa.2009.192r).
Converted amounts (≈) assume the structure as drawn.

Columns and labels:
[1] = tested on: Apis mellifera; conditions: acute; duration: 48 hours; dermal; mortality
[2] = tested on: Canidae; conditions: oral, Dog Other, clinical signs
[3] = tested on: Anas platyrhynchos; conditions: for LD50: oral, mortality
[4] = tested on: Colinus virginianus; conditions: acute, oral, mortality
[5] = tested on: Rattus norvegicus
[6] = tested on: Oncorhynchus mykiss
[7] = tested on: Tagia sp.
[8] = tested on: Folsomia candida; conditions: chronic/long-term; duration: 28 days
[9] = tested on: Daphnia magna; conditions: chronic/long-term; duration: 21 days; reproduction

Structure (SMILES): CCc1nn(C)c(C(=O)NCc2ccc(C(C)(C)C)cc2)c1Cl [Tebufenpyrad]
- LD50 [1]: > 6.7 µg/piece
- NOAEL ([2]; chronic, duration: 1 years): 2 mg/kg-day
- NOAEL ([2]; subchronic, duration: 90 days): 2 mg/kg-day
- LD50 ([3]; acute, unspecified): > 2000 mg/kg-day
- NOEL ([3]; reproductive): 6.6 mg/kg-day
- LD50 ([3]; short-term, feed): > 75 mg/kg-day
- LD50 ([4]; diet): > 439 mg/kg-day
- LD50 [4]: > 2000 mg/kg-day
- LD50 ([5]; acute, oral, M/F, Fischer 344, mortality): 320 mg/kg-day
- NOEL ([5]; chronic, body weight): 8.4 mg/kg-day
- NOAEL ([5]; chronic, duration: 2 years, oral, diet, organ weight): 0.8 mg/kg-day
- NOAEL ([5]; reproduction developmental, reproduction): 15.3 mg/kg-day
- NOAEL ([5]; subchronic, duration: 90 days, oral, organ weight): 0.7 mg/kg-day
- LC50 ([6]; acute, duration: 96 hours, mortality): 0.03 mg/L (≈ 0.0899 µM)
- NOEC ([6]; chronic/long-term, duration: 94 days): 0.00245 mg/L
- LC50 ([7]; acute, duration: 14 days, mortality): 41 mg/kg
- NOEC ([7]; chronic/long-term): 0.66 mg/kg
- NOEC [8]: 9.38 g/ha
- NOEC [9]: 0.0024 mg/L
